We go through 1 molecule from article PMC10195144, “Purification and characterization of a cold-active myrosinase from marine Pseudomonas oleovorans SuMy07” (Acta Biochimica et Biophysica Sinica, 2023).

For this test, the system named is T1, myrosinase of SuMy07.
T1 construct: gene beta-thioglucoside glucohydrolase; native enzyme purified from the marine isolate (ultrafiltration, ammonium sulfate, Superdex 200); two subunits of 65 kDa
Description: double-reciprocal plot of sinigrin hydrolysis. Type of test: biochemical, Pseudomonas oleovorans. Conditions: pH 7.0, 25 °C.

Turning to `C=CC/C(=N/OS(=O)(=O)O)S[C@@H]1O[C@H](CO)[C@@H](O)[C@H](O)[C@H]1O` [sinigrin hydrate], the Km stood at 1400 µM.
